# US8217035B2, “Pyrimidine derivatives used as PI-3-kinase inhibitors” (Novartis AG, priority 2006, dated 2012)
# Like-named read-outs stand apart in the source and are kept apart here.
# Tests used:
# PI3 kinase alpha = PI3 kinase alpha (Homo sapiens, UniProt P42336); assay: PI3K ATP depletion assay (Biological Method 1, Assay 3; KinaseGlo luminescence); type: biochemical; conditions: ATP depletion assay, read-out: PI3 Kinase Alpha, IC50
# Description: The PI3 kinase alpha IC50 values shown in Table 1 were determined according to the ATP depletion assay as disclosed herein in Biological Method 1.
# Assay 3: ATP Depletion Assay
# Compounds to be tested are dissolved in DMSO and directly distributed into a black 384-well plate at 1.25 μL per well. To start the reaction, 25 μL of 10 nM PI3 kinase and 5 μg/mL 1-alpha-phosphatidylinositol (PI) are added into each well followed by 25 μL of 2 μM ATP. The reaction is performed until approx 50% of the ATP is depleted, and then stopped by the addition of 25 μL of KinaseGlo solution purchased from Promega. The stopped reaction is incubated for 5 minutes and the remaining ATP is then detected via luminescence.
# [1] = tested on: A2780 ovarian cancer cells; assay: Cellular proliferation in A2780 cells, Cell Titer Glo (Biological Method 4); type: cell-based; conditions: Homo sapiens
# Description: In addition, many of the compounds of Table 1 were tested to determine their inhibitory activity in a cellular proliferation assay according to Biological Method 4.
# The ability of the compounds of the invention to inhibit cellular proliferation were determined by using Cell Titer Glo, a commercially available assay from Promega Corporation. A2780 ovarian cancer cells were seeded in TC treated 96-well plates at a density of 1,000 per well in DMEM, 10% FBS, 1% Sodium Pyruvate, and 1% Penicillin Streptomycin for a minimum of 2 hrs prior to addition of compound. For each concentration of test compound, 2 μl (500×) aliquots of compound or 100% DMSO diluted in 500 μl of culture medium for 2× concentration then diluted 1× on the Cells. Cells were incubated for 72 hrs at 37° C., 5% CO2. After the 72 hour incubation, Cell Titer Glo reagent is added to determine number of viable cells remaining after exposure to the compound, and the EC50 value was calculated. The assay was performed according to the manufacturer's instruction (Promega Corporation, Madison, Wis. USA). Each experimental condition was performed in duplicate.
# [2] = ovarian cancer cell line A2780, Biological Method 4
# Chain of PI3 kinase alpha (P42336 whole entry): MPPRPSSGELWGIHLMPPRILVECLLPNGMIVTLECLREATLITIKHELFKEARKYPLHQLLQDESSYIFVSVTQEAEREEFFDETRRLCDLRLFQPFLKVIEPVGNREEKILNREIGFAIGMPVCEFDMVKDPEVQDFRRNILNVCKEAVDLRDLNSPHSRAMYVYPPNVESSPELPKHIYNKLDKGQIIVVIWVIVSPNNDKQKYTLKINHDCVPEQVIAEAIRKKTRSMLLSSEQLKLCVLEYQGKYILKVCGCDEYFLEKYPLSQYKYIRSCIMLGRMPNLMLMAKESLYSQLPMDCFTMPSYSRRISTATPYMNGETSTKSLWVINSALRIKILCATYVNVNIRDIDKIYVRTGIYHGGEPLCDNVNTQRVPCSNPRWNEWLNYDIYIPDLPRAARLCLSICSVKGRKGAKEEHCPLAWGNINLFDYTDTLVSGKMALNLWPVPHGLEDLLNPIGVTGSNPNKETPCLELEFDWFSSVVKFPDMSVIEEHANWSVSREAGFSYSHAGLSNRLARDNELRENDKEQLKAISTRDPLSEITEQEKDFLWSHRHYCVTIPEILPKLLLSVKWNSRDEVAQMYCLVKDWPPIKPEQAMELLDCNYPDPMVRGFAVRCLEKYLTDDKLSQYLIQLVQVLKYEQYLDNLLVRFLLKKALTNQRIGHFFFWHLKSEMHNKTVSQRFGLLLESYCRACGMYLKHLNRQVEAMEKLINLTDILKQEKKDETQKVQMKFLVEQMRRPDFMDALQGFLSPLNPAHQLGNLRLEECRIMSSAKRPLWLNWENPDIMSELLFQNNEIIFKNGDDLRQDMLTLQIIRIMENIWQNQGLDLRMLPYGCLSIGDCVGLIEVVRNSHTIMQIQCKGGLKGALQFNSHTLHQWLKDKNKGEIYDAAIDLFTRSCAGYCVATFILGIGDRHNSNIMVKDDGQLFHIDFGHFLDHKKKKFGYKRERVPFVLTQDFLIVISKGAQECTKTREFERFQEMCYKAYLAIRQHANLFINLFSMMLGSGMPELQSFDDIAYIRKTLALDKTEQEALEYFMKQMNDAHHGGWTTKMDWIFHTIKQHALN
# Chain of PI3 kinase alpha (P27986 whole entry partner): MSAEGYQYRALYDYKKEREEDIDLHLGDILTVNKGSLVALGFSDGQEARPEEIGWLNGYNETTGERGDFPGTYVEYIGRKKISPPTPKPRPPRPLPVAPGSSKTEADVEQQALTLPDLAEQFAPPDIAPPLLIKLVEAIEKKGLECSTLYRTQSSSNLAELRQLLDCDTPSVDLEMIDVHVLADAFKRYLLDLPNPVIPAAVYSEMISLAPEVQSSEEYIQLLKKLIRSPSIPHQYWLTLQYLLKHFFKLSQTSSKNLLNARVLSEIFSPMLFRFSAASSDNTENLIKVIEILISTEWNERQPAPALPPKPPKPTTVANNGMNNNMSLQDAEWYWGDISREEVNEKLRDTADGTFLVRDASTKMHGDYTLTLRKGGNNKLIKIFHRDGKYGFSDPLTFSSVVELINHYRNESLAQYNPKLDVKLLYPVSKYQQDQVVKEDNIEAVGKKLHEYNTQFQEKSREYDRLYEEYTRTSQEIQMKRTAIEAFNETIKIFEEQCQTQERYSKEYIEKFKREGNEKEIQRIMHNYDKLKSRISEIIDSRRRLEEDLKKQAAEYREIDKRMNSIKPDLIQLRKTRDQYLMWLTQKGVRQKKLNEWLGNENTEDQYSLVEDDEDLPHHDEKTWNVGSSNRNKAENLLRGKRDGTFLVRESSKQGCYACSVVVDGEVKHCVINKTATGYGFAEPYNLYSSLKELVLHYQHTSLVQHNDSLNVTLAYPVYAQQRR
IC50 (PI3 kinase alpha; Biological Method 1),"EC50 [1, 2]",IC50 (PI3 kinase alpha),EC50 ([1]; ovarian cancer cell line A2780),Compound
< 1000 nM,< 10 µM,,,Nc1ccc(-c2cc(N3CCOC(c4ccccc4)C3)nc(N3CCOCC3)n2)cn1 (stereo not shown) [Compound 371]
< 1000 nM,< 10 µM,,,Nc1ccc(-c2cc(Sc3ccncc3)nc(N3CCOCC3)n2)cn1 [Compound 294]
,,< 1000 nM,< 10 µM,Nc1ncc(-c2cc(NC3CC3)nc(N3CCOCC3)n2)cn1 [Compound 402]
< 1000 nM,< 10 µM,,,Nc1ccc(-c2cc(Nc3ccc4c(c3)OCC(=O)N4)nc(N3CCOCC3)n2)cn1 [Compound 384]
< 1000 nM,< 10 µM,,,Nc1cc(C(F)(F)F)c(-c2cc(-c3cncc(S(=O)(=O)CCO)c3)nc(N3CCOCC3)n2)cn1 [Compound 265]
< 1000 nM,< 10 µM,,,Nc1ccc(-c2cc(Sc3ccccn3)nc(N3CCOCC3)n2)cn1 [Compound 295]
< 1000 nM,< 10 µM,,,Nc1ccc(-c2cc(Nc3cnc4ccc(O)cc4c3)nc(N3CCOCC3)n2)cn1 [Compound 367]
< 1000 nM,< 10 µM,,,Nc1cc(C(F)(F)F)c(-c2cc(Oc3ccc4ncccc4c3)nc(N3CCOCC3)n2)cn1 [Compound 217]
< 1000 nM,< 10 µM,,,Cn1cc(-c2cc(-c3ccc(N)nc3)nc(N3CCOCC3)n2)cn1 [Compound 247]
,,< 1000 nM,< 25 µM,Nc1cc(C(F)(F)F)c(-c2ccnc(N3CCOCC3)n2)cn1 [Compound 466]
< 1000 nM,< 10 µM,,,COc1nc2ccccc2cc1Nc1cc(-c2ccc(N)nc2)nc(N2CCOCC2)n1 [Compound 287]
< 1000 nM,< 25 µM,,,Nc1ncc(-c2cc(C(=O)N3CCCCC3)nc(N3CCOCC3)n2)cn1 [Compound 234]
,,< 1000 nM,< 10 µM,COC(=O)N1CCC[C@H](Oc2cc(-c3cnc(N)cc3C(F)(F)F)nc(N3CCOCC3)n2)C1 [Compound 454]
< 1000 nM,< 10 µM,,,CS(=O)(=O)Nc1ncccc1-c1cc(-c2cnc(N)nc2N)nc(N2CCOCC2)n1 [Compound 260]
< 1000 nM,< 10 µM,,,Nc1cc(C(F)(F)F)c(-c2cc(N3CCC(=O)CC3)nc(N3CCOCC3)n2)cn1 [Compound 324]
< 1000 nM,< 10 µM,,,Nc1cc(Cl)c(-c2cc(Nc3ccncc3C(F)(F)F)nc(N3CCOCC3)n2)cn1 [Compound 219]
< 1000 nM,< 10 µM,,,Nc1ncc(-c2cc(NC(=O)[C@@H]3CCCO3)nc(N3CCOCC3)n2)cn1 [Compound 290]
< 1000 nM,< 10 µM,,,COc1cccc(Nc2cc(-c3cnc(N)nc3)nc(N3CCOCC3)n2)c1 [Compound 308]
< 1000 nM,< 25 µM,,,Nc1cc(C(F)(F)F)c(-c2cc(NC3CCOCC3)nc(N3CCOCC3)n2)cn1 [Compound 322]
< 1000 nM,< 25 µM,,,Cc1c(-c2cnc(N)nc2)nc(N2CCOCC2)nc1-c1cncc(OCCN(C)C)c1 [Compound 270]
,,< 1000 nM,< 1 µM,Nc1ncc(-c2cc(-c3cccnc3)nc(N3CCOCC3)n2)cn1 [Compound 518]
< 1000 nM,< 25 µM,,,Nc1ccc(-c2cc(Nc3cc(F)ccn3)nc(N3CCOCC3)n2)cn1 [Compound 351]

# Further lines, the molecule ahead of its results:
Compound,IC50 (PI3 kinase alpha; Biological Method 1),"EC50 [1, 2]",IC50 (PI3 kinase alpha),EC50 ([1]; ovarian cancer cell line A2780)
Nc1ccc(-c2cc(Nc3ccc4ccccc4n3)nc(N3CCOCC3)n2)cn1 [Compound 438],,,< 1000 nM,< 10 µM
Nc1cc(C(F)(F)F)c(-c2cc(Nc3cnc4ccc(OCCN5CCCC5)cc4c3)nc(N3CCOCC3)n2)cn1 [Compound 489],,,< 1000 nM,< 10 µM
CS(=O)(=O)N1CCC(Oc2cc(-c3cnc(N)cc3C(F)(F)F)nc(N3CCOCC3)n2)CC1 [Compound 461],,,< 1000 nM,< 10 µM
Nc1ccc(-c2cc(Nc3ccc(-c4cnco4)cc3)nc(N3CCOCC3)n2)cn1 [Compound 357],< 1000 nM,< 25 µM,,
Nc1ccc(-c2nc(N3CCOCC3)ncc2N)cn1 [Compound 259],< 10000 nM,< 25 µM,,
COc1ccccc1CCNc1cc(-c2ccc(N)nc2)nc(N2CCOCC2)n1 [Compound 304],< 1000 nM,< 25 µM,,
Nc1ccc(-c2cc(-c3cccnc3F)nc(N3CCOCC3)n2)cn1 [Compound 508],,,< 1000 nM,< 10 µM
CCN(CC)C(=O)Cc1csc(Nc2cc(-c3cnc(N)cc3C(F)(F)F)nc(N3CCOCC3)n2)n1 [Compound 218],< 1000 nM,< 10 µM,,
Nc1cc(C(F)(F)F)c(-c2cc(O[C@H]3CCN(C(=O)c4ccccc4)C3)nc(N3CCOCC3)n2)cn1 [Compound 532],,,< 1000 nM,< 10 µM
CN(C)CCOc1ccc(-c2cc(-c3cnc(N)nc3)nc(N3CCOCC3)n2)cn1 [Compound 223],< 1000 nM,< 10 µM,,
Nc1cc(C(F)(F)F)c(-c2cc(N3CCOC(c4ccc(C(F)(F)F)cc4)C3)nc(N3CCOCC3)n2)cn1 (stereo not shown) [Compound 334],< 1000 nM,< 10 µM,,
COC(=O)N1CCC[C@@H](Oc2cc(-c3cnc(N)cc3C(F)(F)F)nc(N3CCOCC3)n2)C1 [Compound 452],,,< 1000 nM,< 10 µM
Nc1cc(C(F)(F)F)c(-c2cc(-c3ccccc3S(N)(=O)=O)nc(N3CCOCC3)n2)cn1 [Compound 543],,,< 1000 nM,< 10 µM
Nc1cc(C(F)(F)F)c(-c2cc(N3CCCOCC3)nc(N3CCOCC3)n2)cn1 [Compound 221],< 1000 nM,< 10 µM,,
Nc1cc(C(F)(F)F)c(-c2cc(N3CCN(c4ccccc4)C3=O)nc(N3CCOCC3)n2)cn1 [Compound 18],,,< 1000 nM,< 1 µM
Nc1ncc(-c2cc(N3CCc4ccccc4C3)nc(N3CCOCC3)n2)cn1 [Compound 403],,,< 1000 nM,< 10 µM
Nc1ncc(-c2cc(NC3CCOCC3)nc(N3CCOCC3)n2)c(C(F)(F)F)n1 [Compound 321],< 1000 nM,< 10 µM,,
N#Cc1cc(-c2ccc(N)nc2)nc(N2CCOCC2)n1 [Compound 415],,,< 1000 nM,< 25 µM
Nc1ccc(-c2cc(Nc3ccc4nccnc4c3)nc(N3CCOCC3)n2)cn1 [Compound 377],< 1000 nM,< 10 µM,,
CC(C)(C)OC(=O)CNc1ccc(Nc2cc(-c3cnc(N)cc3C(F)(F)F)nc(N3CCOCC3)n2)cn1 [Compound 491],,,< 1000 nM,< 25 µM
CC(=O)c1ccccc1-c1cc(-c2ccc(N)nc2)nc(N2CCOCC2)n1 [Compound 255],< 1000 nM,< 25 µM,,
Cc1nc(N)ncc1-c1ccnc(N2CCOCC2)n1 [Compound 478],,,< 1000 nM,< 25 µM
CN(C)c1nc2ccccc2cc1-c1cc(-c2ccc(N)nc2)nc(N2CCOCC2)n1 [Compound 500],,,< 1000 nM,< 10 µM
Nc1cc(Cl)c(-c2cc(N3CCOC(c4ccccc4)C3)nc(N3CCOCC3)n2)cn1 (stereo not shown) [Compound 342],< 1000 nM,< 10 µM,,
CN1CCC(Oc2cc(-c3cnc(N)nc3)nc(N3CCOCC3)n2)CC1 [Compound 514],,,< 1000 nM,< 10 µM
CC(C)OC(=O)N1CCC[C@@H](Oc2cc(-c3cnc(N)nc3N)nc(N3CCOCC3)n2)C1 [Compound 527],,,< 1000 nM,< 10 µM
Nc1ccc(-c2cc(-c3ccncc3)nc(N3CCOCC3)n2)cn1 [Compound 246],< 1000 nM,< 10 µM,,
CS(=O)(=O)N1CC[C@H](Oc2cc(-c3cnc(N)cc3C(F)(F)F)nc(N3CCOCC3)n2)C1 [Compound 524],,,< 1000 nM,< 10 µM
